Conditions: 303.16 K, Liquid, Vibrating tube method

CCCCCCCCCC [decane]
Conditions | mass density [kg/m3]
9263 kPa | 729.6
9277 kPa | 729.6
9288 kPa | 729.7
9302 kPa | 729.7
9321 kPa | 729.7
9332 kPa | 729.7
9348 kPa | 729.7
9360 kPa | 729.7
9372 kPa | 729.7
9392 kPa | 729.7
9407 kPa | 729.8
9419 kPa | 729.8
9433 kPa | 729.7
9449 kPa | 729.9
9461 kPa | 729.8
9473 kPa | 729.8
9491 kPa | 729.7
9509 kPa | 729.9
9521 kPa | 729.8
9535 kPa | 729.8
9552 kPa | 729.9
9566 kPa | 729.8
9581 kPa | 729.7
9595 kPa | 729.9
9608 kPa | 729.9
9624 kPa | 729.9
9639 kPa | 729.8
9655 kPa | 729.9
9672 kPa | 730
9685 kPa | 729.8
9704 kPa | 729.9
9725 kPa | 730
9738 kPa | 730
9754 kPa | 730
9767 kPa | 730.2
9778 kPa | 730
9793 kPa | 730.1
9808 kPa | 729.9
9820 kPa | 730
9831 kPa | 730.1
9841 kPa | 730.1
9855 kPa | 730.1
9870 kPa | 730.1
9881 kPa | 730.2
9900 kPa | 730.1
9913 kPa | 730.1
9921 kPa | 730.2
9935 kPa | 730.2
9946 kPa | 730.2
9956 kPa | 730.2
9969 kPa | 730.2
9979 kPa | 730.1
9992 kPa | 730.3
10003 kPa | 730.3
10021 kPa | 730.1
10032 kPa | 730.2
10048 kPa | 730.2
10090 kPa | 730.4
10106 kPa | 730.3
10117 kPa | 730.4
10132 kPa | 730.2
10145 kPa | 730.3
10164 kPa | 730.3
10176 kPa | 730.5
10188 kPa | 730.3
10206 kPa | 730.3
10221 kPa | 730.3
10231 kPa | 730.4
10246 kPa | 730.4
10276 kPa | 730.4
10289 kPa | 730.5
10302 kPa | 730.4
10318 kPa | 730.5
10331 kPa | 730.4
10343 kPa | 730.5
10358 kPa | 730.5
10374 kPa | 730.4
10385 kPa | 730.4
10401 kPa | 730.6
10414 kPa | 730.4
10432 kPa | 730.6
10446 kPa | 730.4
10458 kPa | 730.6
10475 kPa | 730.6
10487 kPa | 730.5
10499 kPa | 730.6
10515 kPa | 730.7
10527 kPa | 730.7
10545 kPa | 730.6
10562 kPa | 730.7
10574 kPa | 730.6
10584 kPa | 730.6
10602 kPa | 730.7
10616 kPa | 730.7
10630 kPa | 730.7
10646 kPa | 730.7
10659 kPa | 730.7
10672 kPa | 730.6
10688 kPa | 730.8
10707 kPa | 730.8
10717 kPa | 730.7
10729 kPa | 730.8
10748 kPa | 730.7
10765 kPa | 730.9
10779 kPa | 730.7
10791 kPa | 730.8
10806 kPa | 730.8
10823 kPa | 730.8
10836 kPa | 730.7
10856 kPa | 730.8
10873 kPa | 730.9
10886 kPa | 731
10904 kPa | 731
10917 kPa | 731.1
10937 kPa | 730.9
10954 kPa | 731
10969 kPa | 730.8
10986 kPa | 731
11001 kPa | 730.9
11014 kPa | 731
11030 kPa | 731.1
11049 kPa | 731
11062 kPa | 730.9
11082 kPa | 731
11102 kPa | 731.1
11116 kPa | 731.1
11133 kPa | 731
11149 kPa | 731
11162 kPa | 731
11186 kPa | 731.1
11200 kPa | 731.1
11216 kPa | 731.1
11234 kPa | 731.2
11257 kPa | 731.1
11275 kPa | 731.2
11291 kPa | 731.2
11312 kPa | 731.2
11330 kPa | 731.2
11347 kPa | 731.2
11365 kPa | 731.2
11379 kPa | 731.1
11396 kPa | 731.2
11417 kPa | 731.3
11436 kPa | 731.3
11452 kPa | 731.4
11469 kPa | 731.4
11485 kPa | 731.3
11504 kPa | 731.4
11519 kPa | 731.2
11533 kPa | 731.3
11553 kPa | 731.3
11570 kPa | 731.4
11589 kPa | 731.5
11609 kPa | 731.2
11623 kPa | 731.4
11643 kPa | 731.3
11660 kPa | 731.4
11677 kPa | 731.5
11695 kPa | 731.6
11712 kPa | 731.6
11732 kPa | 731.5
11749 kPa | 731.5
11762 kPa | 731.6
11782 kPa | 731.5
11797 kPa | 731.5
11820 kPa | 731.6
11843 kPa | 731.7
11858 kPa | 731.6
11881 kPa | 731.7
11901 kPa | 731.7
11916 kPa | 731.7
11942 kPa | 731.6
11962 kPa | 731.7
11978 kPa | 731.6
11996 kPa | 731.6
12012 kPa | 731.6
12034 kPa | 731.8
12055 kPa | 731.8
12070 kPa | 731.8
12097 kPa | 731.7
12118 kPa | 731.7
12135 kPa | 731.8
12159 kPa | 731.8
12183 kPa | 731.9
12196 kPa | 731.9
12215 kPa | 731.9
12234 kPa | 731.7
12254 kPa | 731.8
12270 kPa | 731.9
12289 kPa | 731.9
12305 kPa | 732
12321 kPa | 732.1
12346 kPa | 731.9
12371 kPa | 732
12391 kPa | 732.1
12410 kPa | 732.1
12430 kPa | 731.9
12452 kPa | 732.1
12470 kPa | 732.1
12489 kPa | 732.1
12509 kPa | 732
12535 kPa | 732.1
12555 kPa | 732
12575 kPa | 732.1
12592 kPa | 732.2
12618 kPa | 732.2
12635 kPa | 732.1
12653 kPa | 732.1
12679 kPa | 732.2
12702 kPa | 732.3
12723 kPa | 732.2
12747 kPa | 732.3
12767 kPa | 732.3
12785 kPa | 732.3
12809 kPa | 732.2
12833 kPa | 732.2
12850 kPa | 732.4
12872 kPa | 732.4
12896 kPa | 732.5
12917 kPa | 732.4
12942 kPa | 732.3
12960 kPa | 732.4
12984 kPa | 732.4
13003 kPa | 732.3
13025 kPa | 732.5
13047 kPa | 732.5
13074 kPa | 732.6
13102 kPa | 732.6
13121 kPa | 732.4
13143 kPa | 732.6
13165 kPa | 732.5
13187 kPa | 732.5
13210 kPa | 732.5
13232 kPa | 732.6
13251 kPa | 732.6
13274 kPa | 732.8
13296 kPa | 732.7
13316 kPa | 732.6
13344 kPa | 732.6
13373 kPa | 732.6
13393 kPa | 732.7
13422 kPa | 732.8
13451 kPa | 732.7
13471 kPa | 732.9
13501 kPa | 732.8
13528 kPa | 732.7
13551 kPa | 732.8
13581 kPa | 732.8
13605 kPa | 732.9
13631 kPa | 732.9
13656 kPa | 733
13679 kPa | 733
13699 kPa | 733.1
13723 kPa | 732.9
13747 kPa | 732.9
13776 kPa | 733
13797 kPa | 732.9
13819 kPa | 733.1
13850 kPa | 733
13875 kPa | 733.2
13903 kPa | 733.1
13931 kPa | 733.1
13957 kPa | 733.1
13985 kPa | 733.2
14017 kPa | 733.2
14039 kPa | 733.2
14064 kPa | 733.2
14097 kPa | 733.2
14129 kPa | 733.3
14154 kPa | 733.3
14184 kPa | 733.4
14209 kPa | 733.3
14239 kPa | 733.4
14262 kPa | 733.4

Source: the NIST ThermoML archive (doi:10.1021/je800110r)
